# Target: Hypoxia-inducible factor 1-alpha inhibitor (Homo sapiens, UniProt Q9NWT6)
# Assay: Inhibition of human recombinant FIH1
# Chain of Hypoxia-inducible factor 1-alpha inhibitor (Q9NWT6 whole entry): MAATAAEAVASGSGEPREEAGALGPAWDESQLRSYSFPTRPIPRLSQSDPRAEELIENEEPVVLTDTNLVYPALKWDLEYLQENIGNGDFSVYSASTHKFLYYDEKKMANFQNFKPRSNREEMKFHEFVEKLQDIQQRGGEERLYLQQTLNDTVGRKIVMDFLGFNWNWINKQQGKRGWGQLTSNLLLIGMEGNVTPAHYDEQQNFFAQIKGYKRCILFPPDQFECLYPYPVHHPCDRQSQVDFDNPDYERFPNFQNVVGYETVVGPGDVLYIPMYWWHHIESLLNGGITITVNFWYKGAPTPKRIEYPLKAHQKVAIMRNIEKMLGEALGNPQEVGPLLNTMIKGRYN
row,IC50 [µM],SMILES
1,73.1,COc1cccc(/C=C2\SC(=S)N(CCC(=O)Nc3cccc4nonc34)C2=O)c1
2,41.4,COc1ccccc1OCc1cn2c(-c3ccc4ccccc4n3)nnc2s1
3,36.2,CCSc1ccc(-c2nn(-c3ccccc3)cc2/C=C2/SC(=S)N(CC(=O)O)C2=O)cc1
4,45.3,COc1cccc(/C=C2\SC(=S)N(CC(=O)Nc3cccc4nonc34)C2=O)c1
5,32.1,COc1ccccc1/C=C1\SC(=S)N(CCC(=O)Nc2ccc(S(N)(=O)=O)cc2)C1=O
6,48.6,O=C(CCN1C(=O)/C(=C\C=C\c2ccco2)SC1=S)Nc1cccc2nonc12
7,47.5,COc1ccccc1/C=C/c1cn2c(-c3ccc4ccccc4n3)nnc2s1
8,66,O=C(O)CCN1C(=O)/C(=C\c2ccc(-c3ccc(Cl)cc3)o2)SC1=S

# Reference: ChEMBL document CHEMBL1152666, “Structure-based virtual screening approach to the discovery of novel inhibitors of factor-inhibiting HIF-1: identification of new chelating groups for the active-site ferrous ion” (Bioorg Med Chem, 2009)
